Values quoted from earlier work in patent US20040028740A1, “Steroid hormones as transfer agents” (priority 2000, published 2004).

[1] = daily doses of 200 mg and 300 mg

CC(=O)[C@H]1CC[C@H]2[C@@H]3CCC4=CC(=O)CC[C@]4(C)[C@H]3CC[C@]12C [progesterone]
effect on HDL-cholesterol levels [1]: does not affect | effect on liver enzymes (ASAT, ALAT, AFOS) [1]: does not affect | effect on sex-hormone binding-globulin (SHBG) synthesis [1]: does not affect | effect on carbohydrate metabolism (orally administered): adversely affects neither | effect on plasma lipids (orally administered): adversely affects neither
